According to patent US12589101B2, “Cyclodextrin protein drug conjugates” (Regeneron Pharmaceuticals, Inc., priority 2017, dated 2026):
≈ marks a conversion by molar mass, not a printed value. Where two headings read alike, the source gives them in different places. Numbered stars: 1 amine (or outer) side, 2 acyl side, 3 side chain; on linkers, the order of the positions; unused ones are H or OH. Square brackets hold non-standard residues; d marks the D form. Peptide text beside a SMILES is read from it. * marks the point of attachment. Dolaproine = CO[C@@H]([C@@H]1CCCN1)[C@@H](C)C(=O)O; Dil = CC[C@H](C)[C@H](NC)[C@@H](CC(=O)O)OC; PABC = O=C(OCc1ccc(N[*:1])cc1)[*:2]; DBCO = C1#Cc2ccccc2N(*)Cc2ccccc21; X1 = C[C@@H](N*)[C@@H](O)c1ccccc1; Cit = NC(=O)NCCC[C@H](N)C(=O)O; PEG4 = NCCOCCOCCOCCOCCC(=O)O; Suc = O=C(CCC(=O)[*:2])[*:1]; NMeV = CN[C@H](C(=O)O)C(C)C

Experiments:
[1] = Solubility of linker-payloads (LC-MS standard curve, saturated solution); type: physicochemical; conditions: water, thermodynamic from solid
Experimental: The following test assays the solubility of the linker-payloads with a cyclodextrin moiety and the linker-payloads without a cyclodextrin moiety.
The test compounds were dissolved in DMSO to build a standard curve using LC-MS method A or B. The test sample was dissolved in water and sonicated for 10 minutes, and then centrifuged. The upper clear solution was analyzed using the same method A or B and the solubility was calculated based on its peak area.
Detailed test procedures were as follows: • 1. […] 0.05 mg of compound was suspended in water (1 mL) and sonicated for 10 minutes. After centrifugation, the clear solution above was collected to provide the saturated sample solution. • 3. All the standard solutions A, B, C, D, E and sample solution were analyzed by LCMS (using the same method and same injection volume) to obtain the peak areas. • 4. Calculate the standard curve according to the data of A-D (X=concentration, Y=peak areas). • 5. Calculate to obtain the concentration of saturated sample solution according to the functions obtained above.

Cathepsin B = Cathepsin B (Homo sapiens, UniProt P07858); assay: Cathepsin B cleavage rate of linker-payloads (Example 66); type: biochemical; conditions: Cathepsin B cleavage rate, pH 5.0, 37° C.
Experimental: Step 1: Preparation of Cathepsin B buffer: 0.1 M NaOAc/0.01M DTT (pH5.0) Dissolve 8.3 g/L NaOAc, 1.54 g/L DTT in deionized water. Adjust pH to 5.0 with HCl/sodium hydroxide.
Step 2: Test Cleavage Rate
• 1. Prepare 25 μM of testing sample: To a 2-mL-tube was added 0.5 mg of testing sample, followed by the addition of 0.2 mL of DMSO. The solution was added dropwise into 0.8 mL of 0.1 M NaOAc/0.01 M DTT buffer. The obtained mixtures were sonicated for 5 minutes to obtain clear and colorless solutions. The pH value of the solution was around 5 according to pH test strip. • 2. Preheat assay buffer: 0.1 M NaOAc/0.01 M DTT (pH 5.0) • 3. Spiking solutions for test compounds: 25 μM Spiking solutions for test compounds: Add 2 μL of 5 mM stock solution into 398 μL of 0.1 M NaOAc/0.01 M DTT buffer (pH 5.0). • 4. Prepare 0.47 μg/μL Cathepsin B in 50 mM NaOAc/1 mM EDTA (pH 5.0). Put on ice. • 5. Without CA074 samples: Add 4 μL of 0.47 μg/μL Cathepsin B into 196 μL of 25 μM Spiking solutions (from step 2), incubate the tubes at 37° C. • 6. With CA074 samples: Add 4 μL of 0.47 μg/μL Cathepsin B with 4 μL of 10 mM Inhibitor (CA074) into 196 μL of 25 μM Spiking solutions (from step 2), incubate the tubes. • 7. After quenching, shake the plate and centrifuge them at 14000 rpm. • 8. Transfer 50 μL of the supernatant from each well into a 96-well sample plate containing 50 μL of ultra pure water (Millipore, ZMQS50F01) for LC/MS analysis. Step 3: Test reference compounds: • 9. Preheat assay buffer: 100 mM Na/K phosphate, pH 6.0, with 1.33 mM EDTA and 2 mM DTT. • 10. Prepare 0.024 μg/μL Cathepsin B: Add 1 μL of 0.47 μg/μL Cathepsin B stock into 19 μL of assay buffer (from step 11). • 11. Add 2 μL of 0.024 μg/μL Cathepsin B (from step 12) to a opaque 96-well plate. • 12. Add 96 μL of assay buffer to each sample. • 13. Add 2 μL of the 10 mM substrate Z-RR-MNA (200 μM final concentration). • 14. For negative control (With inhibitor), add 2 μL of 10 mM Inhibitor (CA074): Immediately read the samples in a kinetic mode at excitation of 340 nm/emission of 425 nm (Read the plate every 30 Second for 3 min). Step 4: Stability of Cathepsin B in incubation samples: • 15. Take 5 μL of incubation samples into 93 μL of assay buffer (from step 11), and then add 2 μL of 10 mM substrate (Z-RR-MNA). • 16. Incubate the samples at 37° C. for 2 min. • 17. Read the samples at excitation of 340 nm/emission of 425 nm.

[2] = aqueous, read-out: Aq. Solubility

SMILES	solubility at 10 min [1, 2] [µg/mL]	solubility at 10 min ([1]; read-out: Solubility) [µg/mL]	CapB (%) (Cathepsin B)
CC[C@H](C)[C@@H]([C@@H](CC(=O)N1CCC[C@H]1[C@H](OC)[C@@H](C)C(=O)N[C@H](C)[C@@H](O)c1ccccc1)OC)N(C)C(=O)[C@@H](NC(=O)[C@H](C(C)C)N(C)C(=O)OCc1ccc(NC(=O)[C@H](CCCNC(N)=O)NC(=O)[C@@H](NC(=O)CCOCCOCCOCCOCCNC(=O)CCC(=O)N2Cc3ccccc3C#Cc3ccccc32)C(C)C)cc1)C(C)C [Ex36] ({DBCO-Suc-PEG4}-V[Cit][PABC][NMeV]V[Dil][Dolaproine]-X1)	< 100	< 100	% % (60< % % ≤70 CapB (%))
CC[C@H](C)[C@@H]([C@@H](CC(=O)N1CCC[C@H]1[C@H](OC)[C@@H](C)C(=O)N[C@H](C)[C@@H](O)c1ccccc1)OC)N(C)C(=O)[C@@H](NC(=O)[C@H](C(C)C)N(C)C(=O)OCc1ccc(NC(=O)[C@H](CCCNC(N)=O)NC(=O)[C@@H](NC(=O)[C@@H](CCCCNC(=O)COC2CCCCCc3c2nnn3CC2OC3OC4C(CO)OC(OC5C(CO)OC(OC6C(CO)OC(OC7C(CO)OC(OC8C(CO)OC(OC2C(O)C3O)C(O)C8O)C(O)C7O)C(O)C6O)C(O)C5O)C(O)C4O)NC(=O)CCOCCOCCOCCOCCNC(=O)CCC(=O)N2Cc3ccccc3C#Cc3ccccc32)C(C)C)cc1)C(C)C (stereo partly shown) [Ex41]	140 (≈ 47.5 µM)	250 (≈ 84.8 µM)	% % (70< % % ≤80 CapB (%))
CC[C@H](C)[C@@H]([C@@H](CC(=O)N1CCC[C@H]1[C@H](OC)[C@@H](C)C(=O)N[C@H](C)[C@@H](O)c1ccccc1)OC)N(C)C(=O)[C@@H](NC(=O)[C@H](C(C)C)N(C)C(=O)OCc1ccc(NC(=O)[C@H](CCCNC(N)=O)NC(=O)[C@@H](NC(=O)[C@@H](CCCCNC(=O)COC2CCCCCc3c2nnn3CC2OC3OC4C(CO)OC(OC5C(CO)OC(OC6C(CO)OC(OC7C(CO)OC(OC8C(CO)OC(OC2C(O)C3O)C(O)C8O)C(O)C7O)C(O)C6O)C(O)C5O)C(O)C4O)NC(=O)CCOCCOCCOCCOCCNC(=O)OC[C@@H]2[C@@H]3CCC#CCC[C@@H]32)C(C)C)cc1)C(C)C (stereo partly shown) [Ex42]	> 1000	1000 (≈ 352 µM)	% % (60< % % ≤70 CapB (%))
CCC[C@@H]1O[C@@H]2C[C@H]3[C@@H]4CCC5=CC(=O)C=C[C@]5(C)[C@H]4[C@@H](O)C[C@]3(C)[C@]2(C(=O)COc2ccc(NC(=O)[C@H](C)NC(=O)[C@@H](NC(=O)CCOCCOCCOCCOCCNC(=O)CCC(=O)N3Cc4ccccc4C#Cc4ccccc43)C(C)C)cc2)O1 [Ex45, 1-(4-{2-azatricyclo[10.4.0.0^4,9]hexadeca-1(12),4(9),5,7,13,15-hexaen-10-yn-2-yl}-4-oxobutanamido)-N-[(1S)-1-{[(1S)-1-[(4-{2-[(1S,2S,4R,6R,8S,9S,11 S,12S,13R)-11-hydroxy-9,13-dimethyl-16-oxo-6-propyl-5,7-dioxapentacyclo[10.8.0.0^2,9.0^4,8.0^13,18]icosa-14,17-dien-8-yl]-2-oxoethoxy}phenyl)carbamoyl]ethyl]carbamoyl}-2-methylpropyl]-3,6,9,12-tetraoxapentadecan-15-amide]	< 100	< 100	% (% ≤50 CapB (%))
CCCC1O[C@@H]2C[C@H]3[C@@H]4C[C@H](F)C5=CC(=O)C=C[C@]5(C)[C@@]4(F)[C@@H](O)C[C@]3(C)[C@]2(C(=O)COc2ccc(NC(=O)[C@H](C)NC(=O)[C@@H](NC(=O)[C@@H](CCCCNC(=O)COC3CCCCCc4c3nnn4CC3OC4OC5C(CO)OC(OC6C(CO)OC(OC7C(CO)OC(OC8C(CO)OC(OC9C(CO)OC(OC3C(O)C4O)C(O)C9O)C(O)C8O)C(O)C7O)C(O)C6O)C(O)C5O)NC(=O)CCOCCOCCOCCOCCNC(=O)CCC(=O)N3Cc4ccccc4C#Cc4ccccc43)C(C)C)cc2)O1 (stereo partly drawn) [Ex63, DIBAC-suc-PEG4-dLys(COT-CD)-Val-Ala-1i]			% (% ≤50 CapB (%))
